Data: ChEMBL document CHEMBL1130713, “Development of 2,2-dimethylchromanol cysteinyl LT1 receptor antagonists” (Bioorg Med Chem Lett, 1998)

Key:
[1] = Volume of distribution after intravenous administration was evaluated in rat; format: ADME, organism-based; details: in vivo, read-out: Vdss
Rattus norvegicus = experiment: Hepatic clearance after intravenous administration was evaluated in rat; format: ADME, organism-based, Liver; details: in vivo
[2] = Half-life was evaluated in plasma of rat; format: ADME, organism-based
[3] = target: T1, Cysteinyl leukotriene receptor 1 (Cavia porcellus, UniProt Q2NNR5); experiment: Antagonism of Cysteinyl leukotriene receptor 1 from guinea pig lung membranes; format: functional, tissue-based
T1 sequence (Q2NNR5 whole entry): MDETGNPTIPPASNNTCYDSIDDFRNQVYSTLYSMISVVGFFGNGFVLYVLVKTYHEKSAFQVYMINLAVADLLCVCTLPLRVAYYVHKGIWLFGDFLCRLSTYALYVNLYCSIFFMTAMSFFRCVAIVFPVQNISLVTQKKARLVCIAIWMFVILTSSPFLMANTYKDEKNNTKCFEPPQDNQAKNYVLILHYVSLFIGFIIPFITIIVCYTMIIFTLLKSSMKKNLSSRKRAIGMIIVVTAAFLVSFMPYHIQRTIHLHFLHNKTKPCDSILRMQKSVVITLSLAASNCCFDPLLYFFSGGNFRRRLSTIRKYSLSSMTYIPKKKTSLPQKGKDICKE

Cavia porcellus [4] = experiment: Compound was tested for its ability to block antigen induced airway obstruction in guinea pig at dose 1 mg/kg at 1 hr; format: functional
Homo sapiens = organism: Homo sapiens; experiment: Compound was tested for its ability to inhibit calcium influx in human U937 cells; format: functional, cell-based; details: U-937
Cavia porcellus [5] = experiment: Compound was tested for its ability to block antigen induced airway obstruction in guinea pig at dose 1 mg/kg at 2 hr; format: functional

| Compound | Vd [1] [L/kg] | Clp (Rattus norvegicus) [mL/min/kg] | half-life [2] [h] | Ki [3] [nM] | inhibition in vivo at 1 mg/kg (Cavia porcellus [4]) [%] | IC50 (Homo sapiens) [nM] | inhibition in vivo at 1 mg/kg (Cavia porcellus [5]) [%] |
| --- | --- | --- | --- | --- | --- | --- | --- |
| COc1ccc(NS(=O)(=O)C(F)(F)F)cc1C[C@H]1[C@@H](O)c2cc(OCc3ccc4ccc(Cl)cc4n3)ccc2OC1(C)C | 1.6 | 6.7 | 3.6 | 4 | 57.9 | 0.5 | – |
| CC1(C)Oc2ccc(OCc3nc4cc(F)c(F)cc4s3)cc2[C@H](O)[C@@H]1Cc1cc(NS(=O)(=O)C(F)(F)F)ccc1Cl | – | – | – | 4 | – | 17 | – |
| O=C(Nc1cccc2c(=O)cc(-c3nnn[nH]3)oc12)c1ccc(OCCCCc2ccccc2)cc1 | – | – | – | – | 50.1 | 1 | – |
| C[C@H]1Oc2ccc(OCc3nc4cc(F)ccc4s3)cc2[C@H](O)[C@@H]1Cc1cccc(NS(=O)(=O)C(F)(F)F)c1 | – | – | – | – | 66.5 | 8 | – |
| CC1(C)Oc2ccc(OCc3nc4cc(F)c(F)cc4s3)cc2[C@H](O)[C@@H]1Cc1cccc(NS(=O)(=O)C(F)(F)F)c1 | – | – | – | 7 | – | 2 | 45.8 |
| COc1ccc(NS(=O)(=O)C(F)(F)F)cc1C[C@H]1[C@@H](O)c2cc(/C=C/c3ccc4ccc(Cl)cc4n3)ccc2OC1(C)C | – | – | – | 5 | – | 0.2 | 40.8 |
| COc1ccc(NS(=O)(=O)C(F)(F)F)cc1C[C@H]1[C@@H](O)c2cc(OCc3nc4cc(F)c(F)cc4s3)ccc2OC1(C)C | 3.8 | 16 | 3.9 | 2 | – | 0.3 | 37.8 |
| O=C(O)c1cccc(C[C@@H]2COc3ccc(OCc4nc5cc(F)ccc5s4)cc3[C@@H]2O)c1 | 0.4 | 3.3 | 1.3 | 14 | – | 310 | 56 |
| COc1cc(C(=O)NS(=O)(=O)c2ccccc2C)ccc1Cc1cn(C)c2ccc(NC(=O)OC3CCCC3)cc12 [ZAFIRLUKAST] | – | – | – | – | – | 1 | 51.6 |
